According to patent US20070128217A1 (priority 2003, published 2007):

What was measured:
[1] = test system: control sera (pooled serum of ten healthy LUMC hospital workers; commercial negative donor pooled serum from the Dutch bloodbank); assay type: binding, human; parameters: Binding of Control serum LUMC to linear peptides / Binding of Control serum Blood-bank to linear peptides / Binding of Control serum LUMC to looped peptides / Binding of Control Serum Blood-Bank to Looped peptides / Binding of Control serum LUMC to linear peptides of the protein M of SARS-CoV Urbani / Binding of Control serum Blood-bank to linear peptides of the protein M of SARS-CoV Urbani / Binding of Control serum LUMC to looped peptides of the protein M of SARS-CoV Urbani / Binding of Control Serum Blood-Bank to Looped peptides of the protein M of SARS-CoV Urbani: unit not given here
[2] = test system: rabbit serum obtained by immunizing a rabbit with the SARS-CoV strain Frankfurt 1; assay type: binding; parameters: Binding of a rabbit serum to linear peptides / Binding of a rabbit serum to looped peptides / Rabbit serum linear peptides / Rabbit serum looped peptides / Binding of a rabbit serum to linear peptides of protein N of SARS-CoV Urbani (Rabbit serum linear peptides) / Binding of a rabbit serum to looped/cyclic peptides of protein N of SARS-CoV Urbani (Rabbit serum looped peptides): unit not given here
[3] = test system: recombinant human anti-SARS-CoV antibody 03-018; assay type: binding; parameters: Binding of antibody 03-018 to linear peptides of the N protein of SARS-CoV Urbani / Binding of antibody 03-018 to looped/cyclic peptides of the N protein of SARS-CoV Urbani: unit not given here
[4] = test system: antibodies in sera from SARS patients (sera 1a, 1b, 2, 6, 37, 62, London, SARS-yellow, SARS-green); assay type: binding, human; parameters: Binding of serum 6 to linear peptides of protein X1 of SARS-CoV Urbani / Binding of serum 37 to linear peptides of protein X1 of SARS-CoV Urbani / Binding of serum 6 to looped/cyclic peptide (PEPSCAN-ELISA) / Binding of serum 37 to looped/cyclic peptide (PEPSCAN-ELISA) / Binding of serum 37 to looped/cyclic peptides of protein X1 of SARS-CoV Urbani / Binding of serum 6 to linear peptides of protein X2 / Binding of serum 37 to linear peptides of protein X2 / Binding of serum 37 to looped/cyclic peptides of protein X2 of SARS-CoV Urbani / Binding of serum 6 to linear peptides of protein M of SARS-CoV Urbani / Binding of serum 37 to linear peptides of protein M of SARS-CoV Urbani / Binding of serum 6 to looped/cyclic peptides of protein M of SARS-CoV Urbani / Binding of serum 37 to looped/cyclic peptides of protein M of SARS-CoV Urbani / Binding of serum 6 to linear peptides of protein X3 of SARS-CoV Urbani / Binding of serum 37 to linear peptides of protein X3 of SARS-CoV Urbani / Binding of serum 37 to looped/cyclic peptides of protein X3 of SARS-CoV Urbani / Binding of serum 6 to linear peptides of protein X4 of SARS-CoV Urbani / Binding of serum 37 to linear peptides of protein X4 of SARS-CoV Urbani / Binding of serum 37 to looped/cyclic peptides of protein X4 of SARS-CoV Urbani / Binding of serum 6 to linear peptides of protein X5 of SARS-CoV Urbani / Binding of serum 37 to linear peptides of protein X5 of SARS-CoV Urbani / Binding of serum 37 to looped/cyclic peptides of protein X5 of SARS-CoV Urbani / Binding of serum 6 to linear peptides of protein N of SARS-CoV Urbani / Binding of serum 37 to linear peptides of protein N of SARS-CoV Urbani / Binding of serum 6 to linear peptide (PEPSCAN-ELISA) / Binding of serum 1a to looped/cyclic peptides of protein N of SARS-CoV Urbani / Binding of serum 1b to looped/cyclic peptides of protein N of SARS-CoV Urbani / Binding of serum 2 to looped/cyclic peptides of protein N of SARS-CoV Urbani / Binding of serum 6 to looped/cyclic peptides of protein N of SARS-CoV Urbani / Binding of serum 37 to looped/cyclic peptides of protein N of SARS-CoV Urbani / Binding of serum 62 to looped/cyclic peptides of protein N of SARS-CoV Urbani / Binding of serum London to looped/cyclic peptides of protein N of SARS-CoV Urbani / Binding of serum SARS-green to looped/cyclic peptides of protein N of SARS-CoV Urbani: unit not given here

Sequence | Binding of a rabbit serum to linear peptides of protein N of SARS-CoV Urbani (Rabbit serum linear peptides) [2] | Binding of a rabbit serum to looped/cyclic peptides of protein N of SARS-CoV Urbani (Rabbit serum looped peptides) [2] | Binding of antibody 03-018 to linear peptides of the N protein of SARS-CoV Urbani [3] | Binding of antibody 03-018 to looped/cyclic peptides of the N protein of SARS-CoV Urbani [3] | Binding of serum 1a to looped/cyclic peptides of protein N of SARS-CoV Urbani [4] | Binding of serum 1b to looped/cyclic peptides of protein N of SARS-CoV Urbani [4] | Binding of serum 2 to looped/cyclic peptides of protein N of SARS-CoV Urbani [4] | Binding of serum 6 to looped/cyclic peptides of protein N of SARS-CoV Urbani [4] | Binding of serum 37 to looped/cyclic peptides of protein N of SARS-CoV Urbani [4] | Binding of serum 62 to looped/cyclic peptides of protein N of SARS-CoV Urbani [4] | Binding of serum London to looped/cyclic peptides of protein N of SARS-CoV Urbani [4] | Binding of serum SARS-green to looped/cyclic peptides of protein N of SARS-CoV Urbani [4] | Binding of serum SARS-yellow to looped/cyclic peptides of protein N of SARS-CoV Urbani [4] | Binding of serum 1a to linear peptides of protein N of SARS-CoV Urbani [4] | Binding of serum 1b to linear peptides of protein N of SARS-CoV Urbani [4] | Binding of serum 2 to linear peptides of protein N of SARS-CoV Urbani [4] | Binding of serum 6 to linear peptides of protein N of SARS-CoV Urbani [4] | Binding of serum 37 to linear peptides of protein N of SARS-CoV Urbani [4] | Binding of serum 62 to linear peptides of protein N of SARS-CoV Urbani [4] | Binding of serum London to linear peptides of protein N of SARS-CoV Urbani [4] | further results
QLESKVSGKGQQQQG | 0.1 | 0.4 | 0.1 | 0.3 | 0.5 | 0.4 | 0.7 | 0.5 | 0.6 | 0.7 | 0.7 | 0.7 | 1.1 |  |  |  |  |  |  |  | Binding of Control Serum Blood-Bank to Looped peptides [1]: 1.0; Binding of Control serum Blood-bank to linear peptides [1]: 0.8; Binding of Control serum LUMC to linear peptides [1]: 0.8; Binding of Control serum LUMC to looped peptides [1]: 0.9; Binding of serum 1a to linear peptide (PEPSCAN-ELISA) [4]: 0.3; Binding of serum 1b to linear peptide (PEPSCAN-ELISA) [4]: 0.1; Binding of serum 2 to linear peptide (PEPSCAN-ELISA) [4]: 0.3; Binding of serum 6 to linear peptide (PEPSCAN-ELISA) [4]: 0.2; Binding of serum 37 to linear peptide (PEPSCAN-ELISA) [4]: 0.7; Binding of serum 62 to linear peptide (PEPSCAN-ELISA) [4]: 0.8; Binding of serum London to linear peptide (PEPSCAN-ELISA) [4]: 0.6; Binding of serum SARS-green to linear peptide (PEPSCAN-ELISA) [4]: 0.5; Binding of serum SARS-yellow to linear peptide (PEPSCAN-ELISA) [4]: 0.8
KMKELSPRWYFYYLG | 0.1 | 0.6 | 0.1 | 0.2 | 0.3 | 0.2 | 0.4 | 0.3 | 0.7 | 0.7 | 0.4 | 0.4 | 0.6 | 0.2 | 0.1 | 0.1 | 0.1 | 0.5 | 0.5 | 0.4 | Binding of Control Serum Blood-Bank to Looped peptides [1]: 0.8; Binding of Control serum Blood-bank to linear peptides [1]: 0.6; Binding of Control serum LUMC to linear peptides [1]: 0.5; Binding of Control serum LUMC to looped peptides [1]: 0.6; Binding of serum SARS-green to linear peptides of protein N of SARS-CoV Urbani [4]: 0.1; Binding of serum SARS-yellow to linear peptides of protein N of SARS-CoV Urbani [4]: 0.6
IGMEVTPSGTWLTYH | 0.1 | 0.6 | 0.1 | 0.2 | 0.5 | 0.3 | 0.5 | 0.3 | 0.8 | 1.0 | 0.6 | 0.7 | 0.5 | 0.2 | 0.1 | 0.1 | 0.2 | 0.6 | 0.6 | 0.5 | Control Serum Blood-Bank Looped peptides [1]: 0.8; Control serum Blood-bank linear peptides [1]: 0.8; Control serum LUMC linear peptides [1]: 0.6; Control serum LUMC looped peptides [1]: 0.8; Binding of serum SARS-green to linear peptides of protein N of SARS-CoV Urbani [4]: 0.3; Binding of serum SARS-yellow to linear peptides of protein N of SARS-CoV Urbani [4]: 0.5
TDYKHWPQIAQFAPS | 0.2 | 0.5 | 0.1 | 0.2 | 0.6 | 0.5 | 0.8 | 0.5 | 0.9 | 1.3 | 0.7 | 0.6 | 0.9 | 0.3 | 0.2 | 0.2 | 0.2 | 0.8 | 0.9 | 0.7 | Control Serum Blood-Bank Looped peptides [1]: 1.2; Control serum Blood-bank linear peptides [1]: 0.8; Control serum LUMC linear peptides [1]: 0.8; Control serum LUMC looped peptides [1]: 1.1; Binding of serum SARS-green to linear peptides of protein N of SARS-CoV Urbani [4]: 0.4; Binding of serum SARS-yellow to linear peptides of protein N of SARS-CoV Urbani [4]: 0.7
RQKKQPTVTLLPAAD | 0.1 | 0.4 | 0.1 | 0.2 |  |  |  |  |  |  |  |  |  | 0.3 | 0.2 | 0.2 | 0.2 | 0.7 | 0.8 | 0.6 | Control Serum Blood-Bank Looped peptides [1]: 0.6; Control serum Blood-bank linear peptides [1]: 0.7; Control serum LUMC linear peptides [1]: 0.8; Control serum LUMC looped peptides [1]: 0.5; Binding of serum SARS-green to linear peptides of protein N of SARS-CoV Urbani [4]: 0.6; Binding of serum SARS-yellow to linear peptides of protein N of SARS-CoV Urbani [4]: 0.6; Recognition of the peptide by sera of SARS-CoV infected individuals, and form (linear, looped/cyclic) in which it is recognized [4]: recognized in looped/cyclic form
